Consider 1 compound from article PMC11655547, “Dual functions of silibinin in attenuating aortic dissection via regulating iron homeostasis and endoplasmic reticulum stress against ferroptosis” (Cell Death & Disease, 2024).

By Kd is commonly meant the concentration at which binding is half-saturated.

The target in this assay is T1, HMOX1 (heme oxygenase 1) (Homo sapiens, UniProt P09601).
T1 sequence (P09601 1-288): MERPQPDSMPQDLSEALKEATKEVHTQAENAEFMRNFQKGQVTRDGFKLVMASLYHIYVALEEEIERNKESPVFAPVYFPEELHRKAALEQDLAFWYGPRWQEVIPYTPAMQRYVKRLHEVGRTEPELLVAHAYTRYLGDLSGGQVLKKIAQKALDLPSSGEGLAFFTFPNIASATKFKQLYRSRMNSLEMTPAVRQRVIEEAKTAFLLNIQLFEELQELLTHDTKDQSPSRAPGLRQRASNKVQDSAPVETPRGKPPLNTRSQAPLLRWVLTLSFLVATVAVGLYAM
In words: SPR ([…] SIL); supported by CETSA and DARTS. In kind it is binding.

Regarding `COc1cc(C2Oc3cc([C@H]4Oc5cc(O)cc(O)c5C(=O)[C@@H]4O)ccc3OC2CO)ccc1O` (stereo partly shown) [SIL, Silibinin], the Kd was 46 µM.
